Patent US8748180B2, “Microfluidic device for pharmacokinetic-pharmacodynamic study of drugs and uses thereof” (Cornell University, priority 2009, dated 2014)

What was measured:
[1] = system: HCT-116; assay: Toxicity experiment in static conditions, hydrogel-encapsulated cells, Trypan-blue viability, PD model fit; format: cell-based; settings: Homo sapiens, HCT-116, 72 h, 5-FU 0, 0.1, 0.2, 0.5 mM, three days, read-out: KC50 (drug concentration where half of the maximum rate is observed), fitted PD parameter
Procedure: (§1) For static condition experiment, the same silicone gaskets were prepared on a glass slide, similar to the μCCA. Cells were seeded into the holes, encapsulated in hydrogel, and […] of cell culture medium were placed on top. This volume is same as the volume of medium placed in the reservoir of a μCCA. Therefore, cells in static conditions are essentially the same as the cells in a μCCA, except that the device was not assembled with the channel layer, and cells were immersed in liquid medium. Cell viability was assessed using the same method as a μCCA.

[2] = system: HepG2/C3A; assay: as above; format: cell-based; settings: three days
Procedure: as §1

[3] = system: Kasumi-1; assay: as above; format: cell-based; settings: Homo sapiens, Kasumi 1, 72 h, 5-FU 0, 0.1, 0.2, 0.5 mM, three days, read-out: KC50 (drug concentration where half of the maximum rate is observed), fitted PD parameter
Procedure: as §1

[4] = system: dihydropyrimidine dehydrogenase (DPD); settings: PK model parameter; calculated from rate of metabolism in a rat and reported liver protein content and cell number; cited from earlier work
[5] = previous clinical findings; cited from earlier work
[6] = system: HepG2/C3A, HCT-116 and Kasumi-1 cells; assay: μCCA viability of three cell lines, 5-FU alone vs 5-FU plus uracil (uracil as modulator)
Procedure: The device was assembled by sandwiching a cell culture chamber layer and a fluidic channel layer between an aluminum bottom frame and a PLEXIGLAS® top frame. A silicone gasket and a polycarbonate base were added to ensure better sealing. […] The device was placed on a rocking platform, set to change direction at approximately every 3 min.
(§2) The whole system was placed inside a cell culture incubator with 5% CO2. After a specified amount of time, the device was dissembled and cells were retrieved by dissolving the alginate in a dissolving buffer (55 mM sodium citrate, 30 mM EDTA, 0.15M NaCl) for 30 min at 37° C., or from […] ® by dissolving in DPBS with 5 mM EDTA solution at 4° C. Cell viability was determined by Trypan-blue exclusion assay using a hemocytometer. At least triplicates were done for each data point.
The effect of uracil as a modulator of 5-FU toxicity was tested by comparing the responses of cells to 5-FU plus uracil and 5-FU alone. […] Cells were also encapsulated in a different hydrogel, […] ®, in a μCCA.

[7] = system: HepG2/C3A; assay: Toxicity in three-chamber μCCA (dynamic conditions), Trypan-blue viability, PK-PD model fit; settings: both static and dynamic conditions; lower Kmax or higher KC50
Procedure: (§3) The device was placed on a rocking platform, set to change direction at approximately every 3 min.
as §2
(§4) An integrated PK-PD model was developed by constructing a PK and PD model separately, and then combining the two. A PK model has the same layout of compartments as a μCCA device. A PD model is integrated into each compartment, describing the kinetics of cell death in each organ. To construct a PK model for a μCCA, mass balance equations describing the flow in, flow out, and metabolism were set up for each compartment, and the ordinary differential equations (ODEs) were solved numerically. Solving the equations required several parameters, such as physiological parameters (flow rate and size of chambers) and enzyme kinetic parameters for the metabolism of 5-FU and uracil, which are summarized in Table 1. […]

[8] = system: HCT-116; assay: as above; settings: three days
Procedure: as §3, §2, §4

[9] = system: Kasumi-1; assay: as above; settings: three days
Procedure: as §3, §2, §4

Structure (SMILES) | EC50 [1] | EC50 ([2]; HepG2/C3A, 72 h, 5-FU 0, 0.1, 0.2, 0.5 mM, read-out: KC50 (drug concentration where half of the maximum rate is observed), fitted PD parameter) | Drop in viability compared with other cell types [2] | EC50 [3] | Maximum rate of metabolism (Vm) [4] | Dose-limiting toxicity [5] | Sensitivity of cells to 5-FU in dynamic conditions versus static conditions [6] | Resistance to 5-FU compared with other two cell types [7] | Sensitivity to 5-FU treatment compared with hepatoma (HepG2/C3A) cell line [8] | Sensitivity to 5-FU treatment compared with hepatoma (HepG2/C3A) cell line [9]
O=c1[nH]cc(F)c(=O)[nH]1 [5-FU, 5-fluorouracil] | 8.61 mM | 5.52 mM | slower drop in the viability | 7.41 mM | 2385 nmol/min/mL | hematological toxicity | more sensitive | most resistant | much more sensitive | much more sensitive
O=c1cc[nH]c(=O)[nH]1 [uracil] |  |  |  |  | 1695 nmol/min/mL |  |  |  |  | 
